Experimental data published in US20040009208A1, “Safe and effective nutritional supplement formulations and associated regimens adapted to prevent and/or treat targeted diseases or medical or health conditions, and related methods” (Vital Living, Inc., priority 2002, published 2004).

How the values were obtained:
LDL cholesterol [1] = test: Projected benefit on LDL cholesterol level (Table 5); type: in vivo, patients; design: key: “NC” indicating no change; conditions: expected benefit, class symbol
Excerpt: (§1) The particular CVD-specific nutraceuticals and regimens herein disclosed were also designed to achieve a measurable benefit on lipid levels equivalent to those provided by many popular pharmaceutical drug therapies. The expected range of benefits (“NC” indicating no change) is projected as indicated below in Table 5. Given that all of the nutritional supplement ingredients used in the CVD-specific nutraceutical herein disclosed operate according to independent mechanisms, the cumulative effective on LDL cholesterol, HDL cholesterol, triglycerides and homocysteine levels would be additive and would not counteract each other or interfere with common CVD prescription pharmaceutical treatments.

HDL cholesterol [2] = test: Projected benefit on HDL cholesterol level (Table 5); type: in vivo, patients; conditions: expected range of benefits, CVD-specific nutraceutical regimen
Excerpt: as §1

triglycerides [3] = test: Projected benefit on triglyceride level (Table 5); type: in vivo, patients; conditions: expected range of benefits, CVD-specific nutraceutical regimen
Excerpt: as §1

homocysteine = test: Projected benefit on homocysteine level (Table 5); type: in vivo, patients; design: key: “NC” indicating no change; conditions: expected benefit, class symbol
Excerpt: as §1

LDL cholesterol [4] = conditions: higher doses (1000-3000 mg/day); cited from earlier work
triglycerides [5] = conditions: low doses (500-1000 mg/day); cited from earlier work
HDL cholesterol [6] = conditions: low doses (500-1000 mg/day); cited from earlier work

In the case of `O=C(O)c1cccnc1` [Niacin], the LDL (LDL cholesterol [1]) was “NC”, the HDL increase (HDL cholesterol [2]) was 5-10% and the TRIGLYCERIDES decrease (triglycerides [3]) was 0-10%. The HOMOCYSTEINE (homocysteine) was “NC”, the “effect on LDL cholesterol” value (LDL cholesterol [4]) was “decrease LDL cholesterol modestly” and the effect on triglycerides (triglycerides [5]) was “lower triglycerides”. The “effect on HDL cholesterol” value (HDL cholesterol [6]) was “raise HDL cholesterol”.
